We go through 4 compounds from US7964604B2, “Bifeprunox mesylate maintenance dose compositions and methods for using the same” (Solvay Pharmaceuticals B.V., priority 2005, dated 2011).

Series [1] in a line: Tablet dissolution test (paddle method). In kind it is physicochemical. To be noted: McILvaine buffer pH 3.0. The method, then:
Three different strengths of tablets (10 mg, 5 mg and 1 mg of bifeprunox mesylate) were prepared having the compositions shown in Table 10; the tablets were designated T1, T2 and T3, respectively.
Each of the tablets were placed in a dissolution test under the following conditions: Apparatus: paddle method; Stirring speed: 50 rpm; Amount of test dissolution medium: 900 ml; Temperature of dissolution medium: 37° C.±0.5° C.
Six different dissolution media were used as follows:
Media 1: Dissolve 2.0 g of sodium chloride dissolved in 7.0 ml of hydrochloric acid, q.s. with water to make 1000 ml (pH 1.2);
Media 2: McILvaine buffer solution (pH 3.0), pH adjusted with 0.05 mol/L of sodium hydrogen phosphate and 0.025 mol/L of citric acid;
Media 3: McILvaine buffer solution (pH 4.0);
Media 4: McILvaine buffer solution (pH 5.0);
Media 6: To 250 ml of 0.2 mol/L potassium dihydrogenphosphate TS add 118 ml of 0.2 mol/L sodium hydroxide TS and water to make 1000 ml.
Dissolution testing was performed in triplicate.

Series [2] can be described thus: Pooled analysis of pharmacokinetic parameters in healthy subjects. In kind it is in vivo, human. From the text:
(§1) The pharmacokinetics of bifeprunox in healthy subjects were investigated based on a pooled analysis of pharmacokinetic (PK) parameters from 21 clinical pharmacology studies. The pooled analysis included PK profiles obtained following single and multiple doses administered to 132 and 399 subjects, respectively, and explored the potential effects of age, gender, body weight and race. In addition, PK in patients (PTS) with schizophrenia were investigated using a population PK approach based on samples from 376 subjects in phase II studies and 434 subjects in phase III studies.
(§2) In healthy subjects and patients with schizophrenia, the maximum tolerated single dose of bifeprunox was 0.5 mg. Tolerance to dose-limiting side effects (nausea, dizziness, vomiting, and orthostatic hypotension) developed as the dosage was titrated upwards. All PK assessments at doses higher than 0.5 mg were performed following multiple dosages under steady-state conditions. Doses of 5-40 mg were administered in efficacy studies. PK parameters describing absorption, distribution, metabolism, and elimination were calculated based on non-compartmental analysis. PK parameter values from each study were combined to create a pooled dataset. The potential influence of gender, body weight, and race on bifeprunox PK was analyzed.

Series [3] can be described thus: Population PK assessment in patients with schizophrenia. To be noted: schizophrenia patients (SP). Format: in vivo, human.
Excerpt: as §1
A population-based PK assessment using compartmental methods was conducted in 810 patients with schizophrenia enrolled in several clinical studies.

Series [4] can be described thus: Maximum tolerated single dose. To be noted: healthy subjects and patients with schizophrenia. In kind it is in vivo, human. On the procedure:
as §2

The nature of series [5]: Administration with a high-fat meal. To be noted: 40 mg dose. Format: in vivo, human. The method, then:
Bifeprunox was rapidly absorbed after oral administration. The median time to peak plasma concentration (Tmax) was approximately 2 hours. Multiple patients were dosed proportional in the 20 to 40 mg/day range (mean AUC0-24 for 20 mg: 381.5 ng·hr/mL and mean AUC0-24 for 40 mg: 825.1 ng·hr/mL). […] Absolute oral bioavailability of the bifeprunox tablets used in the pooled studies has not been determined.

Series [6] deals with plasma proteins. The experiment in a line: Plasma protein binding. The settings on record: human, healthy patients as well as those with renal or hepatic impairment, read-out: bound to plasma proteins. In kind it is in vitro ADME. The source says:
Apparent volume of distribution (Vz/F) was 1300 L. Based upon the volume of distribution, bifeprunox was extensively distributed into the peripheral tissues. […] Bifeprunox was more than 99% bound to plasma proteins in healthy patients as well as those with renal or hepatic impairment.

For series [7], the target named is T1, CYP2C9 (Homo sapiens, UniProt P11712). In words: In vitro metabolism. In kind it is in vitro ADME. To be noted: in vitro data.
Series [8] addresses T2, CYP3A4 (Homo sapiens, UniProt P08684). In words: In vitro metabolism. In kind it is in vitro ADME. To be noted: in vitro data.
A short description of series [9]: In vitro metabolism. Format: in vitro ADME. The settings on record: in vitro data, CYP2A4.
Series [10] in a line: PK in healthy subjects with reduced CYP2C enzyme activity. In kind it is in vivo, human.
The nature of series [11]: Drug-drug interactions (co-administration). In kind it is in vivo, human. From the text: Co-administration with […] paroxetine had no effect on bifeprunox PK. Bifeprunox exposure was reduced by approximately 50% after co-administration with the CYP3A4 inducer carbamazepine. […] Bifeprunox had no effect on the PK and pharmacodynamics of warfarin and the PK of lithium. […] Administration of famotidine, an H2 antagonist that inhibits gastric acid secretion, had no effect on bifeprunox PK.

Series [12] has as its target T1, CYP2C9. In words: Metabolism based on in vivo data. Also on record: from tissue; host or cells: endogenous enzyme of clinical subjects (in vivo). The method, then: (§3) Based on those pharmacokinetics, bifeprunox (an investigational partial dopamine agonist antipsychotic compound) was rapidly absorbed after oral administration. Multiple-dose PK of bifeprunox were dose proportional over the range of 20 to 40 mg doses. Bifeprunox was extensively distributed into peripheral tissues and highly protein bound. It was primarily eliminated in the feces. […] Bifeprunox has a low drug interaction potential with other drugs used in these studies (e.g. lithium, warfarin and famotidine).

Series [13] addresses T2, CYP3A4. In words: Metabolism based on in vivo data. Details: from tissue; host or cells: endogenous enzyme of clinical subjects (in vivo). On the procedure:
as §3

The nature of series [14]: Stability of polymorphic forms. The settings on record: for thermodynamic stability of the crystalline form: monomethanesulfonate. Format: physicochemical. From the text:
During further investigations it appeared that polymorphs γ and δ are metastable, and therefore may have drawbacks when used in a pharmaceutical formulation. The unpredictable formation of one of the two polymorphs γ and δ or a mixture thereof is also undesirable. It would be desirable, therefore, to provide a stable crystalline form of 7-[4-([1,1′-biphenyl]-3-ylmethyl)-1-piperazinyl]-2(3H)-benzoxazolone monomethanesulfonate for pharmaceutical use which can be consistently produced.
Furthermore this crystalline form crystallizes in the form of large crystals which can be easily filtrated and have a high purity. Therefore this polymorph α is particularly suitable for the formulation of bifeprunox mesylate in a solid form, if desired after particle size reduction.

[15] abbreviates: co-administration with carbamazepine.
Setting [16] is: co-administration with fluconazole.
The mark [17] stands for this setting: co-administration with ketoconazole.

Like-named read-outs stand apart in the source and are kept apart here.

T2 sequence (P08684 whole entry): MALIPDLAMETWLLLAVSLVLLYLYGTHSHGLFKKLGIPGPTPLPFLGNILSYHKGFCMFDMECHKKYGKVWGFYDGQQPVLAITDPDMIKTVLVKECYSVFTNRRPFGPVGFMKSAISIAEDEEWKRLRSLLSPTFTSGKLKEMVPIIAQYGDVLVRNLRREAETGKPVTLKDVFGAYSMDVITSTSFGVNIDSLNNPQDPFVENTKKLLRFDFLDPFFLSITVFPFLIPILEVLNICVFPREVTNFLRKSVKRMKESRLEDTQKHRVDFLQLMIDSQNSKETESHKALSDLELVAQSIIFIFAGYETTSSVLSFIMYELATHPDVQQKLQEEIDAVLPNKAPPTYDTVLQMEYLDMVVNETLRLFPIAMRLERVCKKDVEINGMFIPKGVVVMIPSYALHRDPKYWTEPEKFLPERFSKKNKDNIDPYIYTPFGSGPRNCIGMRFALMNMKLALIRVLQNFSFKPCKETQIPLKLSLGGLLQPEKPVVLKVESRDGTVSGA
T1 sequence (P11712 whole entry): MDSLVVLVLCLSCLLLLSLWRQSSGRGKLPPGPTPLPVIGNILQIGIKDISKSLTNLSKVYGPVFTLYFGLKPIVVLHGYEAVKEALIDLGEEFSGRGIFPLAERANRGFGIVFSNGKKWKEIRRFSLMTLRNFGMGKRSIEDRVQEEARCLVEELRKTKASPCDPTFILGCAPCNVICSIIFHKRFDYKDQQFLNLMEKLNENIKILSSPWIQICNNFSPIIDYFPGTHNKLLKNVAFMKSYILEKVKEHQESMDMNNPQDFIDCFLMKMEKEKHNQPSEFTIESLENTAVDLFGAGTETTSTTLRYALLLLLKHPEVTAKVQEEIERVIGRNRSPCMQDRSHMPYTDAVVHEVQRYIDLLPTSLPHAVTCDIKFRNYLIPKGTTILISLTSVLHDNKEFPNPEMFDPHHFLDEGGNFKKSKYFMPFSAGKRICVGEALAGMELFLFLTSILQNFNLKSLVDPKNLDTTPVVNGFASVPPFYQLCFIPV

On to `O=c1[nH]c2cccc(N3CCN(Cc4cccc(-c5ccccc5)c4)CC3)c2o1` [bifeprunox, 7-[4-([1,1′-biphenyl]-3-ylmethyl)-1-piperazinyl]-2(3H)-benzoxazolone monomethanesulfonate], for which, in series [1], the dissolution behavior entry is given as “dissolves almost immediately”. In addition, the “Bioavailability (predicted)” value in series [2] (based on hepatic blood flow and oral clearance) was 54%. The “mean steady-state elimination half-life (t1/2)” value in series [2] (following multiple dose administration) is 14.4 hours and approximately 14 hours. Moreover, the figures for the Cl/F in series [2] (healthy subjects (HS)) and in [3] were 62.2 L/h and 57 L/h, respectively. Further, the blood plasma ratio in [2] (human, blood and plasma) is 0.7 to 0.9. Also, the Vd/F in series [2] (human, in vivo) was roughly 1300 L; in [2] (human, plasma, oral, healthy subjects, read-out: Apparent volume of distribution (Vz/F)), 1300 L; in series [2] (human, plasma, oral, multiple dose, 20 and 40 mg/day, mean ± SD, read-out: Vzbw/F (apparent volume of distribution corrected by body weight)) it was 17.3 ± 9.4 L/kg; in [3] (human, in vivo, oral, read-out: Vz/F), roughly 1100 L. For the same compound, the “distribution of bifeprunox or its metabolites into red blood cells” value in [2] (human, in vivo) is given as “No extensive distribution”. In addition, the half-life was 840 min in [2] (human, in vivo); 864 ± 318 min in [2] (human, in vivo, multiple dose, 20 and 40 mg/day, mean ± SD, read-out: T1/2 (converted)); 900 min in [3] (human, in vivo, oral). The AUC(0-t) came to 382 ng·h/mL in series [2] (human, plasma, oral, 20 mg, multiple dose, read-out: mean AUC0-24); 825 ng·h/mL in series [2] (human, plasma, oral, 40 mg, multiple dose, read-out: mean AUC0-24); 402 ± 292 ng·h/mL in series [2] (human, plasma, oral, multiple dose, 20 and 40 mg/day, dose normalized to 20 mg, mean ± SD, read-out: AUC0-24). Also, the highest level in [2] (human, plasma, oral, multiple dose, 20 and 40 mg/day, dose normalized to 20 mg, mean ± SD) (Cmax) was 62.1 ± 38.2 ng/mL. The Tmax in series [2] (human, plasma, oral, multiple dose, 20 and 40 mg/day, median (range), read-out: Tmax) was 2 h; in [2] (human, plasma, oral administration, read-out: median time to peak plasma concentration (Tmax)), roughly 2 h. In series [2] (human, plasma, po, multiple dose, 20 and 40 mg/day, mean ± SD, read-out: CLbw/F (weight normalized oral clearance) (converted)), the CL/F was 15 mL/min/kg. For the same compound, the “age-, gender-, body weight-, or race-related effects on PK” value in series [2] (pooled analysis) is on record as “no clinically relevant”. The “Steady-state mean oral clearance (CL/F)” value in series [2] (steady state) turned out to be 62.2 L/h. Besides, in [4], the “maximum tolerated single dose” value was determined as 0.5 mg. In addition, the “Cmax increase with high-fat meal” value in series [5] is listed as 29%. For the same compound, the “Tmax delay with high-fat meal” value in series [5] amounted to 1.5 h. Further, the fraction unbound in [6] is less than 0.01. Moreover, the “metabolism in the liver by enzyme” value in [7] was “primarily”; in series [8], “primarily”; in series [9], “minor contribution”. Moreover, the “AUC, fold higher than for extensive metabolizers” value in [10] (intermediate metabolizers) worked out at 3.7 fold; in [10] (slow metabolizers) it was 7.1 fold. Moreover, the “Cmax, fold higher than for extensive metabolizers” value in [10] (intermediate metabolizers (reduced CYP2C activity)) was 3.1 fold; in [10] (slow metabolizers (reduced CYP2C activity)), 3.9 fold. Moreover, the “effect on bifeprunox PK” value in [11] (administration of famotidine) and in [11] (co-administration with paroxetine) was “no effect” each time. The “prothrombin time profile following warfarin, presence versus absence of bifeprunox” value in series [11] (bifeprunox 40 mg/day with warfarin) was “comparable”. Further, the “decrease of mean AUC0-24” value in series [11] (setting [15]) came to 54%. In series [11] (setting [15]), the “decrease of mean Cmax” value worked out at 50%. The “reduction of bifeprunox exposure” value in series [11] (setting [15]) is “approximately 50%”. In addition, the “increase of mean bifeprunox AUC0-24” value in series [11] (setting [16]) was 3.7 fold. Moreover, in [11] (setting [16]), the “increase of mean bifeprunox Cmax” value stood at 2.5 fold. The “increase of bifeprunox AUC0-24” value in series [11] (setting [17]) is given as 63%. Besides, in [11] (setting [17]), the “increase of bifeprunox Cmax” value stood at 44%. Further, the “effect of bifeprunox on the PK of lithium” value in [11] (co-administration with lithium) is given as “no effect”. The “effect of bifeprunox on the PK and pharmacodynamics of warfarin” value in [11] (co-administration with warfarin) is “no effect”. Further, the “metabolism by enzyme, based on in vivo data” value is on record as “primarily metabolized” in [12] and “to a lesser extent” in [13].

With `O=c1[nH]c2cccc(N3CCN(Cc4cccc(-c5ccccc5)c4)CC3)c2o1` [polymorph α, 7-[4-([1,1′-biphenyl]-3-ylmethyl)-1-piperazinyl]-2(3H)-benzoxazolone monomethanesulfonate], the “conversion of the polymorphic form” value in [14] (high atmospheric humidity or higher temperature) is reported as “does not undergo conversion”. Also, the “thermodynamic stability of the crystalline form” value (shortened to “thermodynamic stability”) in [14] is on record as “more thermodynamically stable”.

`O=c1[nH]c2cccc(N3CCN(Cc4cccc(-c5ccccc5)c4)CC3)c2o1` [polymorph γ, 7-[4-([1,1′-biphenyl]-3-ylmethyl)-1-piperazinyl]-2(3H)-benzoxazolone monomethanesulfonate]: in series [14], the “thermodynamic stability” value is reported as “metastable”.

As for `O=c1[nH]c2cccc(N3CCN(Cc4cccc(-c5ccccc5)c4)CC3)c2o1` [polymorph δ, 7-[4-([1,1′-biphenyl]-3-ylmethyl)-1-piperazinyl]-2(3H)-benzoxazolone monomethanesulfonate], in [14], the “thermodynamic stability” value is on record as “metastable”.
